Columns and labels:
Assay type in all cases: cell-based
L929 cells [1] = assay: Toxicity test, MTT assay, 50% cell growth inhibition; details: 48 hours culture with polymer
Experimental: Toxicity test was performed on L929 cells. The cells having been suspended in a culture medium of DMEM with 10% fetal bovine serum are seeded in 96-well plates (1.0×10^3 cells/well) and cultured at 37° C. for 72 hours. Thereafter, each of ε-poly-L-lysine and the modified poly-lysines having been added with varying concentrations of succinic anhydride was added to the culture media to attain final concentrations of 0-10%.

L929 cells [2] = assay: Thawed L929 cells seeded directly without dilution or washing, cultured 24 hours; details: thawed liquid seeded directly, no dilution nor washing, FIG. 3-1, 3-2
Experimental: Meanwhile, the cryopreservation liquid containing the L929 cells was frozen, thawed and directly seeded in 12-well plates and cultured at 37° C. for 24 hours. In detail, the cells were cryopreserved in the 7.5% solution of the PLL succinic anhydride 63% and thawed as in EXAMPLE 2, except that no dilution nor washing was made for the liquid or the cells, and the liquid containing the cells was directly transferred to the plates for culturing.

[3] = tested on: Rat mesenchymal stem cells (RMSC); assay: Cryopreservation of rat mesenchymal stem cells, survival after thawing
[4] = tested on: CD34-expressing hematopoietic cells; assay: Cryopreservation of umbilical cord blood, CD34 flow cytometry; details: human cord blood; −80° C. for three months
Experimental: Umbilical cord blood was collected from human umbilical cord by a 7 mL plastic vacuum blood sampling tube (Venoject II, Terumo Corporation) loaded with 10.5 mg anticoagulant (EDTA2Na). […] Then the cord blood was quickly thawed in a water bath at 37° C., and a sample of cord blood without dilution was analyzed with respect to the expression of the surface marker, CD34, by flow cytometry. The number of hematopoietic cells expressing CD34 was measured according to the standard method described in the literature (A. Higuchi et al., J. Biomed. Mater. Res., 68A, the fixed method of 34-42 (2004)). Thus the number of CD34-expressing hematopoietic cells was estimated according to the protocol in the manual (International Hemotherapeutics and Transplantation Society ISHAGE guideline) using Stem-Kit (Beckman-Coulter Corporation). Even after the three months of cryopreservation, number of counted cells of the CD34-expressing hematopoietic cells was estimated to be about 70% of that on the first day when the cord blood was added with the PLL succinic anhydride 63% was added by 7.5%; whereas, when the cord blood in a state of 10% DMSO solution was cryopreserved, number of the CD34-expressing hematopoietic cells was estimated to be about 20% of that on the first day.

In the case of `C[S+](C)[O-]` [DMSO, dimethylsulfoxide], the “IC50 (50% Cell-growth-inhibition Concentration)” value (L929 cells [1]) is reported as 2.035 ± 0.017%, the “observation of cells after 24 hours culture” value (L929 cells [2]) is reported as “apparently round in shape and dead” and the “survival rate, 6 hours later” value ([3]; 6 hours after thawing) is reported as 88.3 ± 1.1. For the same compound, the “survival rate, 24 hours later” value ([3]; 24 hours after thawing) was 92.8 ± 3.5, the “survival rate, Immediately” value ([3]; immediately after thawing) was 92.3 ± 4.3 and the “number of CD34-expressing hematopoietic cells relative to that on the first day” value [4] was “about 20%”.
